Here are results for three compounds from US5063224A, “R-cefuroxime axetil” (priority 1990, dated 1991).

The structures appear in SMILES notation. Values after ≈ are worked out from the molar mass of the structure shown.

For series [1] the following is noted: oral administration; cited from earlier work.
In series [2] the test system is esterase enzymes in blood serum. Put plainly: Hydrolysis by esterase enzymes in dog blood serum (Example 5). In kind it is in vitro ADME. The procedure: The following study was conducted to establish that S-cefuroxime axetil is hydrolyzed to cefuroxime acid much more rapidly by esterase enzymes in blood serum than the R-cefuroxime axetil of this invention.
Blood serum was obtained from an 11.5 kg male dog two days prior to sacrifice. The whole blood was centrifuged for fifteen minutes at 3500 rpm and 4° C. The serum thus collected was diluted with ten parts Sorenson's phosphate buffer pH 7.4.
A solution was prepared by dissolving 0.29 mg of R-cefuroxime axetil in 50 ml of Sorenson's phosphate buffer pH 7.4. Another solution was prepared by dissolving 0.26 mg of S-cefuroxime acetil in 50 ml of Sorenson's phosphate buffer pH 7.4.
Triplicate test tubes containing 2.75 ml of the R-cefuroxime axetil solution, and triplicate tubes containing 2.75 ml of the S-cefuroxime axetil solution, were each heated to 37° C. and diluted with 0.25 ml of the serum preparation from above. Aliquot portions (200 μl each) from each tube were drawn at thirty minute intervals, diluted with 100 μl of 10% aqueous trichloracetic acid, and 100 μl of acetonitrile. The samples were centrifuged at 3000 rpm for five minutes to precipitate the proteins, and then transferred to autosampler tubes for determination of cefuroxime free acid content. Analysis was conducted using a Beckman 344 gradient high performance liquid chromatography column packed with zorbox C18 reverse phase, with an eluant comprised of 40 parts methanol and 60 parts water. Standard integration of HPLC curves were carried out to convert the area to a mg/ml equivalent.

The next series can be described thus: physchem. It is filed as physicochemical. Particulars: organic solvent or mixture. The procedure: The substantially pure R-cefuroxime axetil of this invention is prepared by selectively solubilizing the R-isomer in a solvent in which the S-isomer is only minimally soluble relative to the R-isomer. Solvents commonly employed are those in which the R-isomer is about six times more soluble in a given volume than the S-isomer. […] Generally, a mixture of R and S-cefuroxime axetil, prepared as described in GB 2,145,409A, and containing the R and S-isomers, is added to a solvent to form a slurry. The best results are obtained employing a solvent that provides sufficient solubility to maintain the desired volume at a minimum. Preferred solvents include alcohols such as methanol and ethanol. […] In isopropanol at 25° C., the R-isomer is 1.84 mg/ml, and the S-isomer is 0.44 mg/ml. In n-butanol at 25° C., the R-isomer is 1.0 mg/ml and the S-isomer is 0.3 mg/ml. In ethyl acetate at 25° C., the R-isomer is 13.42 mg/ml, and the S-isomer is 10.0 mg/ml.

A short description of series [3]: Microbiological assay of biological potency (Example 2 product). To be noted: product with 85% by weight R- and 15% S-cefuroxime axetil.
Series [4] can be described thus: Hydrolysis in dog gut cell (intestine) preparation (Example 6). In kind it is in vitro ADME. The method, then:
About 18 inches of intestine was removed from a 13 month old male dog weighing 11.5 kg. The intestine section was washed several times with Sorenson's solution, and then sliced open lengthwise. The intestine cells were collected by scraping the inner surface of the intestine with a glass microscope slide, and provided 6.10 g of cell tissue. The cell tissue was placed in 30.5 ml of Sorenson's pH 7.5 phosphate buffer. The mixture was homogenized for 30 seconds with a Tek-Mar tissuemizer. The resulting suspension was centrifuged at 4° C. at 3500 rpm for 15 minutes.
Following the general procedure of Example 2, 0.277 mg of R-cefuroxime axetil was dissolved in 50 ml of Sorenson's pH 7.4 buffer, and 0.263 mg of S-cefuroxime axetil was dissolved in 50 ml of Sorenson's pH 7.4 buffer.
Triplicate tubes of 2.75 ml of the R-cefuroxime axetil solution, and triplicate tubes of the S-cefuroxime axetil solution, were allowed to equilibrate to 37° C., and then 0.25 ml of the intestine mixture from above was added to each tube. Aliquot samples were withdrawn every 30 minutes for two hours, and each 200 μl of 10% aqueous trichloroacetic acid and 100 μl of acetonitrile. […] The assays were analyzed for unchanged R- or S-cefuroxime axetil and afforded the following results.

On to `CO/N=C(\C(=O)N[C@@H]1C(=O)N2C(C(=O)OC(C)OC(C)=O)=C(COC(N)=O)CS[C@H]12)c1ccco1` (mixture of isomers) [R,S-mixture of cefuroxime axetil, 1-acetoxyethyl ester of cefuroxime], for which the “bioavailability of the cefuroxime antibiotic” value in series [1] was “about fifty”.

As a reminder, the solubility is the concentration that dissolves in the medium under given conditions. Regarding `CO/N=C(\C(=O)N[C@@H]1C(=O)N2C(C(=O)O[C@H](C)OC(C)=O)=C(COC(N)=O)CS[C@H]12)c1ccco1` [R-cefuroxime axetil], in series [2], the “half-life (in words)” value is reported as “longer half-life”. Moreover, the solubility in “physchem” (ethanol) was determined as 12000 µg/mL (≈ 23.5 mM); in “physchem” (ethyl acetate), 13400 µg/mL (≈ 26.3 mM); in “physchem” (isopropanol), 1840 µg/mL (≈ 3.6 mM); in “physchem” (methanol), 391000 µg/mL (≈ 767 mM); in the series “physchem” (n-butanol), 1000 µg/mL (≈ 1.96 mM). In series [3], the biological potency is recorded as 99%.

`CO/N=C(\C(=O)N[C@@H]1C(=O)N2C(C(=O)O[C@@H](C)OC(C)=O)=C(COC(N)=O)CS[C@H]12)c1ccco1` [S-cefuroxime axetil, reference compound]: the “hydrolysis rate relative to R-cefuroxime axetil in blood serum” value in series [2] is reported as “about 25 fold”. Moreover, the “hydrolysis in blood serum (in words)” value in series [2] (vs R-cefuroxime axetil) is listed as “hydrolyzed much more rapidly”. The “hydrolysis rate relative to R-cefuroxime axetil in intestinal preparations” value in series [4] is “about 3 fold”. For the same compound, the “hydrolysis in the dog gut (in words)” value in series [4] (vs R-cefuroxime axetil) was “hydrolyzed much more rapidly”. The solubility was about 2980 µg/mL (≈ 5.84 mM) in “physchem” (ethanol); 10000 µg/mL (≈ 19.6 mM) in “physchem” (ethyl acetate); 440 µg/mL (≈ 0.862 mM) in the series “physchem” (isopropanol); 90000 µg/mL (≈ 176 mM) in the series “physchem” (methanol); 300 µg/mL (≈ 0.588 mM) in “physchem” (n-butanol).
